Experiments:
[1] = system: JAK-STAT signal pathway of U266 cells; assay: Inhibition of cellular JAK-STAT signal pathway (STAT3 phosphorylation) in U266 cells; assay type: cell-based, human; conditions: Homo sapiens, U-266, INF-a 1000 U/mL stimulation
Procedure: The objective of the test is to test the inhibitory activity of the compound on the cellular JAK-STAT signaling pathway.
U266 cell line was used in this experiment, by activating the JAK-STAT signaling pathway through INF-a stimulation, the inhibitory activity of the compound on its downstream STAT3 phosphorylation was detected, and the half inhibitory concentration IC50 of the compound on the JAK-STAT signaling pathway activity was obtained.
3-12 μL of U266 cell line was spread into the 384-well detection plate, and the number of cells in each well was 100-300 K, followed by addition of 2 μL of the compound solution serially diluted. The plate was incubated for 2 hours with shaking at 350 rpm at room temperature. After 2 hours, 2 μL of INF-a with a final concentration of 1000 U/mL was added. The plate was shaken at room temperature for 15 minutes. 2-5 μL (5×) LANCE Ultra Lysis Buffer 2 solution was added and the plate was shaken at room temperature for 2 hours. After 2 hours, 5 μL of LANCE Ultra Eu-labeled Anti-STAT3 Antibody (PerkinElmer) with a final concentration of 0.5 nM and LANCE Ultra ULight-labeled Anti-STAT3 Antibody (PerkinElmer) with a final concentration of 5 nM were added, and the plate was incubated overnight at room temperature. The fluorescence signal value at 665 nm of each well was measured with the microplate reader, and the inhibition rate was calculated from the fluorescence signal value. According to the inhibition rate of different concentrations, the IC50 of the compound was obtained by curve fitting.
(§1) The percentage inhibition data of the wells treated with the compound was calculated with the positive control wells (DMSO control wells) and negative control wells (no kinase added) on the plate {% inhibition rate=100-[(test compound value-negative control value)]/(Positive control value-negative control value)×100}. IC50 value was calculated by using GraphPad prism to fit the data of different concentrations and corresponding percentage inhibition rates to a 4-parameter non-linear logic formula.

JAK1 = JAK1 (Homo sapiens, UniProt P23458); assay: JAK kinase activity inhibition, TR-FRET (JAK1); assay type: biochemical; conditions: TR-FRET kinase assay
Procedure: (§2) Experimental objective: The objective of this test is to test the inhibitory effect of the compound on JAK kinase activity.
(§3) Experimental method: the fluorescence resonance energy transfer (TR-FRET) method was used to test the inhibitory effect of the compound on JAK kinase activity, and the half inhibitory concentration IC50 of the compound on JAK kinase activity was obtained.
(§4) Kinase reaction was carried out in a white 384-well plate (PerkinElmer). 1-5 μL of different concentrations of the compound diluted with DMSO and ddH2O was added into each well, and 1-5 μL of the corresponding solvent was added to the positive control wells, followed by addition of 0.1-20 nM JAK kinase solution diluted with 1-5 μL of kinase buffer (HEPES 50-250 mM, MgCl2 5-20 mM, etc.) was added to each well. 1-5 μL of kinase buffer was added to the negative control well. 1-5 μL of substrate mixture containing peptide substrate and ATP was added. The plate was incubated at room temperature for 0.5-5 hours. […], EDTA and detection solution containing labeled antibody was added, and then the plate was incubated at room temperature for another 1-24 hours. The fluorescence signal value at about 620 nm and 665 nm of each well was measured by BioTek Synergy H1 plate reader, and the inhibition rate was calculated by the fluorescence signal value. According to the inhibition rate of different concentrations, the IC50 of the compound was obtained by curve fitting.
as §1

TYK2 = TYK2 (Homo sapiens, UniProt P29597); assay: JAK kinase activity inhibition, TR-FRET (TYK2); assay type: biochemical; conditions: TR-FRET kinase assay
Procedure: as §2, §3, §4, §1

Sequence of JAK1 (P23458 whole entry): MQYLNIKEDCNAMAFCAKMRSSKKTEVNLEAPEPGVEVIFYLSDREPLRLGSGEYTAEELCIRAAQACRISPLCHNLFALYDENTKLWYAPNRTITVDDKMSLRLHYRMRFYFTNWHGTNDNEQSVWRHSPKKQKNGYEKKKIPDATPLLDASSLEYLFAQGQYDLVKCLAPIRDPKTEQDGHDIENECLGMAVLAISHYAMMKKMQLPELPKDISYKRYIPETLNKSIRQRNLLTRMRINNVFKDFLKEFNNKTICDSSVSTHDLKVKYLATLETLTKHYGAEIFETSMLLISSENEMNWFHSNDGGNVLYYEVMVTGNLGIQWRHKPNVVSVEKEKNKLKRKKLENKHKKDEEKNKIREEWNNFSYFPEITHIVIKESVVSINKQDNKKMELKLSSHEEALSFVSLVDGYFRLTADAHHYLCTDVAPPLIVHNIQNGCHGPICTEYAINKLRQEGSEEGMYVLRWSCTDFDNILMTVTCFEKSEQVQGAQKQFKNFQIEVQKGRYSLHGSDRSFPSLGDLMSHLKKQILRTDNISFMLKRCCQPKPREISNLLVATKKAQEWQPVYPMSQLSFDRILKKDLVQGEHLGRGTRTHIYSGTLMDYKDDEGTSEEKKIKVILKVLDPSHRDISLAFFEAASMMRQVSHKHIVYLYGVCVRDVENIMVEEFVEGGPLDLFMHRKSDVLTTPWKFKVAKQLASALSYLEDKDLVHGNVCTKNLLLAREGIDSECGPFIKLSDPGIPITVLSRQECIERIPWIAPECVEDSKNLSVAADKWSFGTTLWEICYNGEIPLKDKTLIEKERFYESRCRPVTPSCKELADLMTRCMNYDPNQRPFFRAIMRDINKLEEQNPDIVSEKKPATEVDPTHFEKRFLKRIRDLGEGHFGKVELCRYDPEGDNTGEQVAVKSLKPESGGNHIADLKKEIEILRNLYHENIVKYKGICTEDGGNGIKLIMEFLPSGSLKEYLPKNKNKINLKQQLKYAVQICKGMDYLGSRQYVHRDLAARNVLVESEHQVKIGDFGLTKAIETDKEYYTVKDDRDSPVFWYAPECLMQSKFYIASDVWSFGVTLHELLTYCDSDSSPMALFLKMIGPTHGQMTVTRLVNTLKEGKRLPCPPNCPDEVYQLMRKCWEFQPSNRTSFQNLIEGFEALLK
Sequence of TYK2 (P29597 whole entry): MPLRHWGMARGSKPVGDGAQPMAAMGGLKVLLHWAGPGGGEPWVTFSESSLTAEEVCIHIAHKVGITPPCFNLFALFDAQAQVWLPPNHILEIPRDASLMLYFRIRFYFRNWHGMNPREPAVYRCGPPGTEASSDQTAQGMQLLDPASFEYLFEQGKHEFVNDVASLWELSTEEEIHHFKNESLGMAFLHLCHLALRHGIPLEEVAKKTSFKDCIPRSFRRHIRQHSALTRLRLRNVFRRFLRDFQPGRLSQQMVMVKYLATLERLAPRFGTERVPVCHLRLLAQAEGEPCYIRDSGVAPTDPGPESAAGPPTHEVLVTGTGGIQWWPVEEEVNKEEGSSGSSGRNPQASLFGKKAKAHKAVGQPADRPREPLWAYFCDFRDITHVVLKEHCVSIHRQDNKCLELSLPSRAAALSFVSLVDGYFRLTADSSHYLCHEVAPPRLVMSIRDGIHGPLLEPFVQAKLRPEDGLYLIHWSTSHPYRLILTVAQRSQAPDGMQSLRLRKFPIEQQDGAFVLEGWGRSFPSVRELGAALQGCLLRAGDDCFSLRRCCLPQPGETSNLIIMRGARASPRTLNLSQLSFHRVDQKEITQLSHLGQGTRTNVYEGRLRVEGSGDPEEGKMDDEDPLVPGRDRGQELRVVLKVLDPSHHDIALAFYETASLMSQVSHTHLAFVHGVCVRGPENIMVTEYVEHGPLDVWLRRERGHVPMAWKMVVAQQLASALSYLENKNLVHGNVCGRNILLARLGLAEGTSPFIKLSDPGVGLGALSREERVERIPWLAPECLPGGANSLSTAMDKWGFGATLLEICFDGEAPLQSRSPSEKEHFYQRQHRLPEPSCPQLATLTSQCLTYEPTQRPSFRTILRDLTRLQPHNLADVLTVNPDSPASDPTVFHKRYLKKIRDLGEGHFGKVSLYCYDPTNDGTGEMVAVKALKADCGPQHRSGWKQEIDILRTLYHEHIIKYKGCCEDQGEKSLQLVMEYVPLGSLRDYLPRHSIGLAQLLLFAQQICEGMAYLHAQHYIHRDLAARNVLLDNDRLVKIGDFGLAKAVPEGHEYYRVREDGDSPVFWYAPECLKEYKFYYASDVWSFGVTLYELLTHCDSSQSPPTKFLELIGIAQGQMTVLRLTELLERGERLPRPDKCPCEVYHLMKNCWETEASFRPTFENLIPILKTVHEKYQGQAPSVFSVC

IC50 (JAK1) [nM]	IC50 (TYK2) [nM]	SMILES	IC50 [1] [nM]
3.55	2.09	COCCS(=O)(=O)N1[C@@H]2CC[C@H]1C[C@H](Nc1nc(Nc3cc(C)[nH]n3)c3ccccc3n1)C2 [Embodiment 233, N2-((3-exo)-8-((2-methoxylethyl)sulfonyl)-8-azabicyclo[3.2.1]oct-3-yl)-N4-(5-methyl-1H-pyrazol-3-yl)quinazolin-2,4-diamine]	–
112	7.11	Cc1cc(Nc2nc(N[C@@H]3C[C@H]4CC[C@@H](C3)N4CCF)nc3ccccc23)n[nH]1 [Embodiment 234]	–
8.81	4.77	CN(c1nc(Nc2cc(CO)[nH]n2)c2ccc(Cl)cc2n1)[C@@H]1C[C@H]2CC[C@@H](C1)N2CCC#N [Embodiment 236, 3-((3-exo)-3-((7-chloro-4-((5-(hydroxymethyl)-1H-pyrazol-3-yl)amino)quinazolin-2-yl)(methyl)amino)-8-azabicyclo[3.2.1]oct-8-yl)propionitrile]	–
10.5	10.2	Cc1cc(Nc2nc(N[C@@H]3C[C@H]4CC[C@@H](C3)N4S(=O)(=O)c3ccccn3)nc3sccc23)n[nH]1 [Embodiment 266, N4-(5-methyl-1H-pyrazol-3-yl)-N2-((3-exo)-8-(pyridin-2-ylsulfonyl)-8-azabicyclo[3.2.1]oct-3-yl)thieno[2,3-d]pyrimidin-2,4-diamine]	–
0.06	14	Cc1cc(Nc2nc(N[C@@H]3C[C@H]4CC[C@@H](C3)N4S(=O)(=O)N3CC(C#N)C3)nc3cc(C)sc23)n[nH]1 [Embodiment 286, 1-(((3-exo)-3-((6-methyl-4-((5-methyl-1H-pyrazol-3-yl)amino)thieno[3,2-d]pyrimidin-2-yl)amino)-8-azabicyclo[3.2.1]oct-8-yl)sulfonyl)azetindin-3-formonitrile]	–
5.11	14.7	Cc1cc(Nc2nc(N[C@@H]3C[C@@H]4CN(CCC#N)C[C@@H]4C3)nc3ccccc23)n[nH]1 [Embodiment 300, 3-(cis-5-((4-((5-methyl-1H-pyrazol-3-yl)amino)quinazolin-2-yl)amino)hexahydrocyclopentadieno[c]pyrrole-2(1H)-yl)propionitrile]	–
1.89	0.34	Cc1cc(Nc2nc(NC3CCN(S(=O)(=O)N4CC(C#N)C4)CC3)nc3sccc23)n[nH]1 [Embodiment 302, 1-((4-((4-((5-methyl-1H-pyrazol-3-yl)amino)thieno[2,3-d]pyrimidin-2-yl)amino)piperidin-1-yl)sulfonyl)azetindin-3-formonitrile]	–
7.5	1.44	Cc1cc(Nc2nc(NC3CCN(S(=O)(=O)N4CC(C#N)C4)CC3)nc3ccccc23)n[nH]1 [Embodiment 311, 1-((4-((4-((5-methyl-1H-pyrazol-3-yl)amino)quinazolin-2-yl)amino)piperidin-1-yl)sulfonyl)azetindin-3-formonitrile]	–

The next lines start with the molecule.

SMILES	IC50 (JAK1) [nM]	IC50 (TYK2) [nM]	IC50 [1] [nM]
CCc1cc(Nc2cc3ncccc3c(N[C@@H]3C[C@H]4CC[C@@H](C3)N4CCC#N)n2)n[nH]1 [Embodiment 11, 3-((3-exo)-3-((7-((5-ethyl-1H-pyrazol-3-yl)amino)-1,6-diazanaphthalen-5-yl)amino)-8-azabicyclo[3.2.1]oct-8-yl)propionitrile]	0.3	9.13	4.77
Cc1cc(Nc2nc(N[C@@H]3C[C@H]4CC[C@@H](C3)N4CCC#N)nc3scnc23)n[nH]1 [Embodiment 66, 3-((3-exo)-3-((7-((5-methyl-1H-pyrazol-3-yl)amino)thiazolo[5,4-d]pyrimidin-5-yl)amino)-8-azabicyclo[3.2.1]oct-8-yl)propionitrile]	3.02	1.49	4.06
Cc1cc(Nc2nc(N[C@@H]3C[C@H]4CC[C@@H](C3)N4CCC#N)c3cccn3n2)n[nH]1 [Embodiment 72, 3-((3-exo)-3-((2-((5-methyl-1H-pyrazol-3-yl)amino)pyrrolo[2,1-f][1,2,4]triazin-4-yl)amino)-8-azabicyclo[3.2.1]oct-8-yl)propionitrile]	4.32	16	5.39
Cc1cc(Nc2cc3nccnc3c(N[C@@H]3C[C@H]4CC[C@@H](C3)N4CCC#N)n2)n[nH]1 [Embodiment 88, 3-((3-exo)-3-((7-((5-methyl-1H-pyrazol-3-yl)amino)pyrido[3,4-b]pyrazin-5-yl)amino)-8-azabicyclo[3.2.1]oct-8-yl)propionitrile]	1.75	3.53	3.1
Cc1cc(Nc2cc3ncccc3c(N(C)[C@@H]3C[C@H]4CC[C@@H](C3)N4CCC#N)n2)n[nH]1 [Embodiment 111, 3-((3-exo)-3-(methyl(7-((5-methyl-1H-pyrazol-3-yl)amino)-1,6-diazanaphthalen-5-yl)amino)-8-azabicyclo[3.2.1]oct-8-yl)propionitrile]	5.69	1.63	2.93
N#CCCN1[C@@H]2CCC[C@H]1C[C@H](Nc1nc(Nc3ncc(CO)s3)cc3ncccc13)C2 [Embodiment 163, 3-((3-exo)-3-((7-((5-(hydroxymethyl)thiazol-2-yl)amino)-1,6-diazanaphthalen-5-yl)amino)-9-azabicyclo[3.3.1]non-9-yl)propionitrile]	0.45	24.4	52.6
O=C(C(F)F)N1[C@@H]2CC[C@H]1C[C@H](Nc1nc(Nc3ncc(CO)s3)cc3ncccc13)C2 [Embodiment 166, 2,2-difluoro-1-((3-exo)-3-((7-((5-(hydroxymethyl)thiazol-2-yl)amino)-1,6-diazanaphthalen-5-yl)amino)-8-azabicyclo[3.2.1]oct-8-yl)ethane-1-one]	0.19	9.31	26.7
OCc1cnc(Nc2cc3ncccc3c(N[C@@H]3C[C@H]4CC[C@@H](C3)N4CCF)n2)s1 [Embodiment 167, (2-((5-(((3-exo)-8-(2-fluoroethyl)-8-azabicyclo[3.2.1]oct-3-yl)amino)-1,6-diazanaphthalen-7-yl)amino)thiazol-5-yl)methanol]	2.55	7.28	14.8
Cc1cc(Nc2nc(N[C@@H]3C[C@H]4CC[C@@H](C3)N4CCC#N)nc3cccnc23)n[nH]1 [Embodiment 174, 3-((3-exo)-3-((4-((5-methyl-1H-pyrazol-3-yl)amino)pyrido[3,2-d]pyrimidin-2-yl)amino)-8-azabicyclo[3.2.1]oct-8-yl)propionitrile]	2.73	1.88	0.42
Cc1cc(Nc2nc(N[C@@H]3C[C@H]4CC[C@@H](C3)N4S(=O)(=O)N3CC(C#N)C3)nc3cc(F)ccc23)n[nH]1 [Embodiment 215, 1-(((3-exo)-3-((7-fluoro-4-((5-methyl-1H-pyrazol-3-yl)amino)quinazolin-2-yl)amino)-8-azabicyclo[3.2.1]oct-8-yl)sulfonyl)azetindin-3-formonitrile]	0.12	0.27	24.1
Cc1cc(Nc2nc(N[C@@H]3C[C@H]4CC[C@@H](C3)N4C(=O)[C@@H]3CCCN3)nc3sccc23)n[nH]1 [Embodiment 249, ((3-exo)-3-((4-((5-methyl-1H-pyrazol-3-yl)amino)thieno[2,3-d]pyrimidin-2-yl)amino)-9-azabicyclo[3.3.1]non-9-yl) ((S)-pyrrolidin-2-yl)methanone]	1.88	0.28	–
Cc1cc(Nc2nc(N[C@@H]3C[C@H]4CCC[C@@H](C3)N4S(=O)(=O)c3nccn3C)nc3sccc23)n[nH]1 [Embodiment 269]	3.22	3.08	–
Cc1cc(Nc2cc3ncccc3c(N[C@@H]3C[C@H]4CC[C@@H](C3)N4S(=O)(=O)c3cn[nH]c3)n2)n[nH]1 [Embodiment 315, N5-((3-exo)-8-((1H-pyrazol-4-yl)sulfonyl)-8-azabicyclo[3.2.1]oct-3-yl)-N7-(5-methyl-1H-pyrazol-3-yl)-1,6-diazanaphthalen-5,7-diamine]	13.1	> 100	–

— patent publication US20230043863A1, “HETEROAROMATIC DERIVATIVES FOR USE AS REGULATOR, PREPARATION METHOD THEREFOR AND USE THEREOF” (JIANGSU HANSOH PHARMACEUTICAL GROUP CO., LTD., priority 2018, published 2023)
